Experimental data: patent US4055640A, “Compositions and methods for controlling the growth of bacteria, fungi and algae using certain derivatives of N-(2,2-dichlorovinyl)salicylamides” (Nippon Kayaku Co., Ltd., priority 1975, dated 1977)

Tests used:
[1] = test system: Fusarium wilt of cucumber; test: Exterminating test on Fusarium wilt of cucumber (Experimental Example 4); format: in vivo, Fusarium oxysporum f, cucumerinum; settings: 500 ppm, soil drench 100 ml per pot, two weeks; for pest or weed control at 500 ppm: Fusarium, soil, 336 h, read-out: Percentage of healthy seedlings
Method: Exterminating test on Fusarium wilt of cucumber Twenty (20) grams of infected soil was added uniformly into each pot which was filled with steam sterilized field soil, then 18 seeds of cucumber (variety; Tokiwazibai) were sowed in each pot. Eighty percent (80%) wettable powder of the present invention was diluted with water to obtain a suspension, and each pot was drenched with the suspension in an amount of 100 ml. Fifty percent (50%) wettable powder of methyl-1-(butylcarbamoyl) 2-benzimidazol carbamate (hereinafter referred to as Benlate) on the market was used as a control and tested by the same method. After two weeks of planting, degrees attacked by the pathogen was observed and a "percentage of healthy seedlings" was calculated as follows: [formula]

[2] = test system: Rhizoctonia solani (damping-off of cucumber); test: Exterminating test on damping-off of cucumber (Experimental Example 3); format: in vivo; settings: soil drench 50 ml per pot, 10 days; for pest or weed control at 1000 ppm: Rhizoctonia solani, soil, 240 h, 1,000 ppm, read-out: Percentage of healthy seedlings
Method: Exterminating test on damping-off of cucumber
The pots (diameter, 12 cm) were filled with field soil and then soil infected by adding Rhizoctonia solani in an amount of 5 grams per pot uniformly into the pots. Thereafter, 10 seeds of cucumber (variety: Azumamidori) were sown in each pot.
Eighty percent (80%) wettable powder of the present invention was diluted with water to obtain a suspension and each pot was drenched with the suspension in an amount of 50 milliliters. Then, the pots were transferred to the greenhouse. Fifty percent (50%) wettable powder of pentachloronitro benzene (hereinafter referred to as PCNB) on the market was used as a control and tested by the same method. After 10 days of the inoculation, degrees attacked by the pathogen were observed and a "Percentage of healthy seedlings" was calculated. The "Percentage of healthy seedlings" was calculated as follows: [formula]

[3] = test system: cucumber seedlings (variety: Sagamihanjiro); test: Phytotoxicity on cucumber seedlings (Experimental Example 2); format: in vivo
Method: (§1) The cucumber seeds (variety: Sagamihanjiro) were sown in pots (diameter 18 cm). Eighty percent (80%) wettable powder (contents of active compound: 80%) of the present invention was diluted with water to obtain a suspension. The suspension was sprayed over the cucumber seedlings of the stage of 3-4 leaves in an amount of 20 ml per pot. After 24 hours, these pots were inoculated by means of spray of spore suspension of Cladosporium cucumerinum. The thus-inoculated seedlings were placed in a moist chamber at 20° C for 24 hours. The pots were continuously kept in a greenhouse at 20° C. The following wettable powders on the market were used as controls.

[4] = test system: Cladosporium cucumerinum (cucumber scab); test: Exterminating test on cucumber scab (Experimental Example 2); format: in vivo; design: scale not given here; settings: 5 days after inoculation
Method: Exterminating test on cucumber scab
as §1
70% wettable powder of 1,2-bis (3-methoxy carbonyl-2-thioureid) benzene (hereinafter referred to as "thiophanate methyl") on the market.
75% wettable powder of ethylene bis (dithiocarbamic acid) manganese (hereinafter referred to as "maneb") on the market. After 5 days of the inoculation, degrees attached by the pathogen were observed and the results were shown in Table 3 with an "Infected Index". The "Infected Index" was calculated as follows: [formula] A : Number of leaves which were killed by hard attack B : Number of leaves severely attacked
C : number of leaves slightly attacked
D : number of healthy leaves

[5] = test system: seedling blight of rice plant (pathogen Fusarium sp. and Rhizoctonia sp.); test: Exterminating test on seedling blight of rice plant (Experimental Example 1); format: in vivo; settings: 0.25g/box a.i., 5% dust mixed with soil; for Percentage of healthy seedlings at 0.25 g/box: soil, 408 h, read-out: Percentage of healthy seedlings
Method: Exterminating test on seedling blight of rice plant Nursery boxes (60 × 30 × 3 cm) were filled with soil which were contaminated with pathogen (Fusarium sp. and Rhizoctonia sp.) The dust in which the present compound was contained in a ratio of 5% by weight was added in the box in a ratio of 5 grams per box and mixed well with soil. Thereafter, seeds of rice plant (variety: Nihonbare) were sowed in drills at a rate of 0.3 liter per box and grown up in a lighting chamber at 17° C. After 7 days from the sowing, the boxes were carried out in the field. Furthermore, 10 days thereafter the observations were made. Four percent (4%) dust of 3-hydroxy-5-methyl isoxazol (hereinafter referred to as hydroxyisoxazol) on the market was used as a control and tested by the same method. The test results are shown in Table 2 with a "percentage of healthy seedlings". The percentage of healthy seedlings was calculated as follows: […]

[6] = test system: Xanthomonas citri (citrus canker); test: Exterminating test on citrus canker (Experimental Example 6); format: in vivo; settings: for pest or weed control at 1000 ppm: read-out: Effect Index, 1,000 ppm, 2 weeks after inoculation
Method: (§2) Exterminating test on citrus canker. 4-year-old summer orange seedlings, planted in unglazed pots having a diameter of 20 cm, were employed in this test. Eighty percent (80%) wettable powder of the present invention was diluted with water, and sprayed over the seedlings in an amount of 50 ml per pot. The leaves of the seedlings were inoculated Xanthomonas citri by means of a needle. After the inoculation, the seedlings were maintained in a moist chamber at 25° C for 24 hours. Then the pots were transferred into the greenhouse. Streptomycin 20% wettable powder was used as a control, and tested by the same method. After 2 weeks after the inoculation, degrees of disease attack were observed, and an "Effect Index" was calculated as follows: [formula]

summer orange seedlings = test: Phytotoxicity on summer orange seedlings (Experimental Example 6); format: in vivo
Method: as §2

[7] = test system: seedlings of kidney beans (variety: Orient); test: Phytotoxicity on kidney beans (Experimental Example 5); format: in vivo
[8] = test system: botrytis cinerea (gray mold); test: Exterminating test on gray mold of tomato (Experimental Example 5); format: in vivo; design: scale not given here; settings: 48 hours after inoculation, kidney bean leaves
Method: Exterminating test on gray mold of tomato The seedlings of kidney beans (variety: Orient) of 5-6 leaves stage were employed in this test. Eighty percent (80%) wettable powder of the present invention was diluted with water and sprayed over the seedlings in an amount of 10 ml per pot. The leaves were cut from the plant at 24 hours after spraying, and placed in the petri dishes (12 cm in diameter). Thereafter disks (5 mm in diameter) were cut with a cork borer from potato dextrose agar on which the pathogen (botrytis cinerea) was cultured. The disks were placed on the leaves. The dishes were placed in such a moistural condition as to cause the pathogen to propagate. Thiophanate methyl 70% wettable powder on the market was used as a control and tested by the same method. After forty eight (48) hours after inoculation, diameters of the lesions were observed, and an "Effect Index" was calculated as follows; [formula]

[9] = test system: Aspergillus niger, Penicillium citrinum, Cladosporium harbarum and chaetomium globosum; test: Degree of growth inhibition of fungi on treated beach plates (Example 17); format: cell-based; design: scale not given here; settings: numerical rating, 2 weeks
Method: The emulsifiable concentrates which were prepared by Example 10 were diluted with water 400 times and 800 times to form emulsions.
(§3) The square plates of beach of which a side was 5 cm long and thickness was 5 mm were dipped into the emulsion for 2 minutes and dried for 24 hours at room temperature.
(§4) The square plates were placed on the surface of agar plates. The suspensions which contained spores of Aspergillus niger, Penicillium citrinum, Cladosporium harbarum and chaetomium globosum were respectively sprayed on the agar plates and the square plates.
The test fungi were cultivated in the incubator at the humidity of 95% and the temperature of 28° C for 2 weeks.
The degree of growth inhibition is defined in terms of the following numerical ratings.

Staphylococcus oureus = test: Region of growth-inhibition around treated cotton cloth (Example 26); format: cell-based; settings: emulsifiable concentrate diluted 100 times
Method: (§5) The emulsifiable concentrates which were prepared by Example 20 were diluted with water 100 times to form an emulsion. A cloth of cotton was soaked into each emulsion for 2 minutes. The clothes were dried at room temperature and cut into a square of which a side was 1 cm long. Each kind of test bacteria and fungi was inoculated, separately, on plates of potato-agar and one square cloth placed on each of such plates. Test bacteria and fungi were cultivated at 28° C for 4 days. The width of the region of growth-inhibition which was formed a circumference of the cloth was measured.

Aspergillus niger = test: as above; format: cell-based; settings: emulsifiable concentrate diluted 100 times
Method: as §5

Bacillus subtilis = test: as above; format: cell-based; settings: emulsifiable concentrate diluted 100 times
Method: as §5

Penicillium Citrinum = test: as above; format: cell-based; settings: emulsifiable concentrate diluted 100 times
Method: as §5

green algae = test: Degree of propagation on slime test boards (Example 27); format: cell-based; settings: same method, shaking culture for 2 days
Method: (§6) Zero point zero two (0.02) part of active compounds in the form of 10% water soluble concentrate which was prepared by Example 23 was added into 100 parts of Waxman's liquid medium. Peices of Wood iron (hereafter referred to as the slime test boards) were soaked into the Waxman's liquid medium. The bacteria which were gathered from circular water system were inoculated upon the Waxman's liquid medium and incubated at 27°-34° C by shaking culture for 2 days. The degree of propagation of the bacteria on the slime test boards was examined.
(§7) Thegrowth-inhibiting activity of active compounds against the fungi and the green algae was also examined by the same method as mentioned above.
(§8) The degree of propagation of the bacteria, fungi or green algae on the test boards is defined in terms of the following symbols.

[10] = test system: bacteria gathered from circular water system; test: as above; format: cell-based; settings: shaking culture for 2 days
Method: as §6, §7, §8

[11] = test system: Aspergillus niger, Penicillium citrinum, Cladosporium harbarum and chaetomium globosum; test: Degree of growth inhibition of fungi on treated beach plates (Example 25); format: cell-based; design: scale not given here; settings: numerical rating, 2 weeks
Method: The emulsifiable concentrates which were prepared by Example 20 were diluted with water 400 times and 800 times to form emulsions.
as §3, §4
The test fungi were cultivated in the incubator at the humidity of 95% and the temperature of 28° C for 2 weeks. The degree of growth inhibition is defined in terms of the following numerical ratings.

Row | Structure (SMILES) | pest or weed control at 500 ppm [1] [%] | pest or weed control at 1000 ppm [2] [%] | Phytotoxicity ([3]; 500 ppm) | Infected Index ([4]; 500 ppm) | Percentage of healthy seedlings at 0.25 g/box [5] [%] | Phytotoxicity (summer orange seedlings; 1,000 ppm) | pest or weed control at 1000 ppm ([6]; Xanthomonas citri, 336 h) [%] | also measured
1 | COc1ccccc1C(=O)NC=C(Cl)Cl [compound 15] | 51.2 | 60 | Nil | 8.9 | 70.2 |  |  | 
2 | [H]/N=C(/N)N[C@H]1[C@H](O)[C@@H](O)[C@H](O[C@@H]2O[C@@H](C)[C@](O)(C=O)[C@H]2O[C@@H]2O[C@@H](CO)[C@H](O)[C@@H](O)[C@@H]2NC)[C@@H](N/C(N)=N\[H])[C@@H]1O [Streptomycin, reference compound] |  |  |  |  |  |  |  | pest or weed control at 200 ppm ([6]; Xanthomonas citri, 336 h, read-out: Effect Index, 200 ppm, 2 weeks after inoculation): 28.7%; Phytotoxicity (summer orange seedlings; 200 ppm): Nil
3 | COC(=O)NC(=S)Nc1ccccc1NC(=S)NC(=O)OC [Thiophanate methyl, 1,2-bis (3-methoxy carbonyl-2-thioureid) benzene, reference compound] |  |  | Nil | 14.6 |  |  |  | Phytotoxicity ([7]; 500 ppm): Nil; Effect Index ([8]; 500 ppm): 82
4 | O=C(NC=C(Cl)Cl)c1ccccc1[O-].O=C(NC=C(Cl)Cl)c1ccccc1[O-].[Mn+2] [compound 28] |  |  |  |  |  | Nil |  | Percentage of healthy seedlings [1]: 57.0%; Effect Index ([6]; 1,000 ppm, 2 weeks after inoculation): 73.6; Degree of growth inhibition ([9]; 0.0125 %): 3; Degree of growth inhibition ([9]; 0.025 %): 3; Percentage of healthy seedlings ([2]; 1,000 ppm): 100%; Percentage of healthy seedlings [5]: 73.0%
5 | CCOC(=O)Oc1ccccc1C(=O)NC=C(Cl)Cl [compound 17] | 47.5 | 85 |  |  | 68.3 | Nil | 68.3 | width of the region of growth-inhibition (Staphylococcus oureus): 7 mm; width of the region of growth-inhibition (Aspergillus niger): 5 mm; width of the region of growth-inhibition (Bacillus subtilis): 8 mm; width of the region of growth-inhibition (Penicillium Citrinum): 6 mm; Degree of propagation (green algae): + (the area of propagation is 1-25% on the slime test boards.); Degree of propagation [10]: -; Degree of growth inhibition ([11]; 0.0125 %): 2; Degree of growth inhibition ([11]; 0.025 %): 3
6 | CC(C)C(=O)Oc1ccccc1C(=O)NC=C(Cl)Cl [compound 11] | 65.5 | 100 | Nil | 10.1 | 68.7 |  |  | Phytotoxicity ([7]; 1,000 ppm): Nil; Effect Index ([8]; 1,000 ppm): 81
7 | Cc1ccc(C(=O)NC=C(Cl)Cl)c(O)c1 [compound 5] | 58.9 | 80 | Nil | 10.7 | 62 | Nil | 98.2 | 
8 | O=C(NC=C(Cl)Cl)c1ccccc1OC(=O)C(Cl)Cl [compound 14] | 62.8 | 95 | Nil | 7.9 | 70.8 | Nil | 73.2 | 
9 | S=C([S-])NCCNC(=S)[S-].[Mn+2] [Maneb, ethylene bis (dithiocarbamic acid) manganese, reference compound] |  |  |  |  |  |  |  | Phytotoxicity ([3]; 1,500 ppm): Nil; Infected Index ([4]; 1,500 ppm): 12.5
